# Values quoted from earlier work in patent US20170216439A1, “OTIC FORMULATIONS FOR THE TREATMENT OF CERUMINOSIS” (Otonomy, Inc., priority 2014, published 2017).
# What was measured:
# [1] = for efficacy against tinnitus: in vivo
# [2] = system: S. pyogenes
# [3] = system: S. aureus
# [4] = system: bacterial lesions; conditions: wild-type C57BL/6 and mutant flake mice
smiles,measurement,setting,value
CCN(CC)CC(=O)Nc1c(C)cccc1C [Lidocaine],"reduces or eliminates the noise associated with tinnitus, share of sufferers",[1]; administered by IV,60-80%
CNCCC=C1c2ccccc2CCc2ccccc21 [nortriptyline],efficacy against tinnitus,[1],demonstrated efficacy
CCCCCCCC/C=C\CCCCCCCC(=O)O [oleic acid],inhibitory against S. pyogenes,[2],inhibitory
same,inhibitory against S. aureus,[3],inhibitory
CCCCCC/C=C\CCCCCCCC(=O)O [palmitoleate],size of bacterial lesions,[4],decrease the size of bacterial lesions
CCCCCC/C=C\CCCCCCCC(=O)O [palmitoleic acid],inhibitory against S. pyogenes,[2],inhibitory
same,inhibitory against S. aureus,[3],inhibitory
Fc1ccc([C@@H]2CCNC[C@H]2COc2ccc3c(c2)OCO3)cc1 [paroxetine],efficacy against tinnitus,[1],demonstrated efficacy
CN[C@H]1CC[C@@H](c2ccc(Cl)c(Cl)c2)c2ccccc21 [sertraline],efficacy against tinnitus,[1],demonstrated efficacy
